Results from US5688767A, “Treatment of endotoxin-associated disorders with cationic peptides” (priority 1996, dated 1997).
Converted amounts (≈) assume the structure as drawn.

What was measured:
E. coli = assay: microbe, parasite or virus in culture; assay type: cell-based, Escherichia coli
Experimental: (§1) The minimum inhibitory concentrations of (MIC) of CEME, CEMA and melittin were determined for a number of different bacteria (Table 2). Briefly, cells were grown overnight at 37° C. in LB-S (Luria broth without any salt supplement) and diluted one in 10,000 in the same medium to give concentrations of about 10^4 to 10^5 CFU/ml. The broth dilutions were set up in a 96 well microtiter plate by putting 200 μl of LB-S containing the initial concentration of antibiotic or compound in column 1 and 100 μl of the same medium in columns 2-12. The compounds were diluted by taking 100 μl of broth from column 1 and mixing it with column 2, resulting in a one in two dilution. This was continued to column 10. Finally, 10 μl of bacteria were pipetted into columns 1-11, and the plates incubated overnight at 37° C. The next day the plates were scored for growth in the wells, and the MIC determined.
Bacteria included the Bort strain of E. coli (Bortolussi, et al., Inf. Immun., 25:293, 1979) that was originally derived from a case of neonatal meningitis, and which is therefore considered a relevant pathogenic strain to study, and the 0111:B4 strain of E. coli (kindly provided by Dr. D. Morrison) which is a standard source of endotoxin. (Kelly, et al., Inf. Immun., 59:4491, 1991). In addition, P. aeruginosa PA01 strain H103, P. aeruginosa M2, P. aeruginosa K799, Eschericha coli UB 1005, Enterobacter cloacae 218S, Salmonella typhimurium MS7953s, Klebsiella pneumoniae ATCC 13883, Xanthomonas maltophilia ATCC 13637, and Acinetobacter calcoacetious 8193 were employed. LPS was obtained from E. coli Bort by the technique of Westphal and Jann, (Westphal, et al., Acad. Press, Inc. NY., 5:83) and from P. aeruginosa H103 by the method of Darveau and Hancock, (Darveau, et al., J. Bacteriol, 155:831, […]). E. coli 0111:B4 LPS was purchased from Sigma.

P. AERUGINOSA H309 = assay: microbe, parasite or virus in culture; assay type: cell-based, Pseudomonas aeruginosa
Experimental: as §1, with “Briefly,” for “The minimum inhibitory concentrations of (MIC) of CEME, CEMA and melittin were determined for a number of different bacteria (Table 2). Briefly,”

[1] = system: P. aeruginosa H309 or E. cloacae 218R1; assay type: cell-based, Pseudomonas aeruginosa; Enterobacter cloacae; settings: 10 μM NPN
From the text: The second assay determined membrane permeability by the ability of 1-N-phenylnaphthylamine(NPN), a small fluorescent probe, to insert itself into the membrane. Normally, very little NPN can penetrate the outer membrane, but in the presence of a membrane permeabilizer it can insert into the hydrophobic membrane resulting in an increase in fluorescence (FIGS. 7 and 8). This N-phenylnaphthylamine uptake assay was previously described by Loh, et al., Antimicrobial Agents and Chemo., 26:546, 1984. Cells were prepared exactly the same as for the lysozyme lysis assay. 1-N-phenylnaphthylamine(NPN) was dissolved in acetone at a concentration of 500 μM. NPN fluorescence was measured in a Perkin-Elmer 650-10S fluorescent spectrophotometer using excitation and emission wavelengths set to 350 nm and 420 nm respectively, with slit widths of 5 nm. The assay was standardized by adding 20 μl of NPN (final concentration of 10 μM) and 10 μl of 0.64 mg/ml of polymyxin B (final concentration of 6.4 μg/ml) into 1 ml of cells, and adjusting the resulting fluorescence to read 90% deflection (90 arbitrary units). Various compounds were tested by adding 10 μl of different concentrations to a cuvette containing 1 ml of cells and 10 μM NPN. Permeabilizing activity was designated as the total fluorescence minus the fluorescence due to NPN alone. Following the fluorescence measurement, the OD600 of the cells was taken to ensure no significant cell lysis had occurred.

[2] = MIC of common antibiotics in the presence of sub-MIC levels of cationic peptides; assay type: cell-based
From the text: The ability of the cationic peptides to work synergistically was examined by determining the MIC values for some commonly used antibiotics in the presence of sub-MIC levels of cationic peptides (Table 4). […] This may be due to the high membrane permeabilizing activity of CEMA (see below). However, the peptides did lower the MIC of polymyxin B, possibly due to the fact that they are all taken up by the same pathway and are therefore aiding each other's uptake. Of interest is the influence that melittin has on the MIC of polymyxin B, given the weak membrane permeabilizing activity of melittin.

[3] = strain UB1005, Parent of DC2 (Table 2)

Molecule	MIC (E. coli; Escherichia coli 0111:B4)	MIC (E. coli; Escherichia coli Bort)	MIC (E. coli; Escherichia coli UB1005 (Table 9))	MIC (E. coli; strain DC2, Polymyxin sensitive)	MIC (E. coli; strain SC9251, Parent of SC9252)	MIC (E. coli; strain SC9252, Polymyxin resistant)	MIC (E. coli; [3])	MIC (P. AERUGINOSA H309; +5 mM Mg^++)	MIC (P. AERUGINOSA H309; +80 mM Na^+)	MIC (P. AERUGINOSA H309; No addition)	activity in opening up the membrane to NPN [1]	MIC in the presence of ([2]; CEMA 0.7 μg/ml)	MIC in the presence of ([2]; CEMA 1.4 μg/ml)	MIC in the presence of ([2]; CEME 0.6 μg/ml)	MIC in the presence of ([2]; CEME 1.2 μg/ml)	MIC in the presence of ([2]; Melittin 2 μg/ml)	MIC in the presence of ([2]; Melittin 4 μg/ml)	MIC in the presence of ([2]; No peptide)
CC[C@H](C)[C@H](NC(=O)CNC(=O)[C@@H](NC(=O)[C@H](CCCCN)NC(=O)[C@H](CCCCN)NC(=O)[C@H](Cc1ccccc1)NC(=O)[C@H](CC(C)C)NC(=O)[C@H](CCCCN)NC(=O)[C@H](Cc1c[nH]c2ccccc12)NC(=O)[C@@H](N)CCCCN)[C@@H](C)CC)C(=O)NCC(=O)N[C@@H](C)C(=O)N[C@H](C(=O)N[C@@H](CC(C)C)C(=O)N[C@@H](CCCCN)C(=O)N[C@H](C(=O)N[C@@H](CC(C)C)C(=O)N[C@H](C(=O)N[C@H](C(=O)NCC(=O)N[C@@H](CC(C)C)C(=O)N1CCC[C@H]1C(=O)N[C@@H](C)C(=O)N[C@@H](CC(C)C)C(=O)N[C@@H](CCCCN)C(=O)N[C@@H](CC(C)C)C(=O)N[C@H](C(=O)N[C@@H](CCCCN)C(=O)O)[C@@H](C)O)[C@@H](C)O)[C@@H](C)O)C(C)C)C(C)C [CEMA]	4 µg/mL (≈ 1.3 µM)	8 µg/mL (≈ 2.61 µM)	4 µg/mL (≈ 1.3 µM)	0.7 µg/mL (≈ 0.228 µM)	1.4 µg/mL (≈ 0.457 µM)	1.4 µg/mL (≈ 0.457 µM)	2.8 µg/mL (≈ 0.913 µM)	22.4 µg/mL (≈ 7.31 µM)	5.6 µg/mL (≈ 1.83 µM)	2.8 µg/mL (≈ 0.913 µM)	equally active	–	–	–	–	–	–	–
polymyxin B	–	–	–	–	–	–	0.5 µg/mL	1 µg/mL	0.5 µg/mL	0.5 µg/mL	equally active	0.5 μg/m1	0.12 μg/m1	0.5 μg/m1	0.25 μg/m1	0.5 μg/m1	0.06 μg/m1	1 μg/m1
